The results in this text go back to patent US20110003773A1, “USING FULLERENES TO ENHANCE AND STIMULATE HAIR GROWTH” (Luna Innovations Incorporated, priority 2008, published 2011).

The assay concerns shaved C57/B6 mice. Kind of assay: Hair growth in shaved C57/B6 mice after injection at the shaved site. It is filed as in vivo. The settings on record: 300 μl of 1 μg/ml in PBS injected at the shaved site every day for 12 days, vs PBS. As for the experimental part:
The backs of C57/B6 mice were shaved bald on the intracapsular part of the back. 300 μl of phosphate buffered saline (PBS) or 300 μl of 1 μg/ml of compound 5 (labelled LnW0033 in FIG. 2) in PBS was injected at the shaved site every day for 12 days.
The backs of C57/B6 mice were shaved bald on the intracapsular part of the back. 300 μl PBS or 300 μl of 1 μg/ml Polyhydroxy-C60 (C60(OH)˜18-24; BuckyUSA, Houston, Tex.; called “Poly C60” in FIG. 3) in PBS was injected at the shaved site every day for 12 days.

On to Polyhydroxy-C60, for which the “hair growth (photograph at day 12) compared to control” value is “hair growth enhancement”.
